Test [1] concerns the target Aurora kinase B (Homo sapiens) (UniProt Q96GD4). Description: Inhibition of AURB (unknown origin) at 50 nM by Z'LYTE screening method relative to control.
The target in test [2] is T1, Aurora kinase C (Homo sapiens) (UniProt Q9UQB9).
T1 sequence (whole entry): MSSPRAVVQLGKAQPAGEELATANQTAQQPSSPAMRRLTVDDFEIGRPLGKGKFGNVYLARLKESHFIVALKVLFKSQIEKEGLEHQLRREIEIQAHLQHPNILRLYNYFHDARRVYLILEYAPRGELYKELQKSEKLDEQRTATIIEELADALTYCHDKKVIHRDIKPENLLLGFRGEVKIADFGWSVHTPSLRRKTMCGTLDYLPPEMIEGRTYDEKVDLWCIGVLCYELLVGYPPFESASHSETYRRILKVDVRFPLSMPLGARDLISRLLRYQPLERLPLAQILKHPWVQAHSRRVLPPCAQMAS
Description: Inhibition of AURC (unknown origin) at 50 nM by Z'LYTE screening method relative to control.

In test [3] the target is Serine/threonine-protein kinase mTOR (Homo sapiens) (UniProt P42345). Kind of test: Inhibition of FRAP1 (unknown origin) at 50 nM by Z'LYTE screening method relative to control.
Test [4] addresses Dual specificity mitogen-activated protein kinase kinase 1 (Homo sapiens) (UniProt Q02750). Description: Inhibition of MAP2K1 (unknown origin) at 50 nM by Z'LYTE screening method relative to control.
In test [5] the target is Mitogen-activated protein kinase 1 (Homo sapiens) (UniProt P28482). Description: Inhibition of MAPK1 (unknown origin) at 50 nM by Z'LYTE screening method relative to control.
Chain of Mitogen-activated protein kinase 1 (Homo sapiens) (P28482 whole entry): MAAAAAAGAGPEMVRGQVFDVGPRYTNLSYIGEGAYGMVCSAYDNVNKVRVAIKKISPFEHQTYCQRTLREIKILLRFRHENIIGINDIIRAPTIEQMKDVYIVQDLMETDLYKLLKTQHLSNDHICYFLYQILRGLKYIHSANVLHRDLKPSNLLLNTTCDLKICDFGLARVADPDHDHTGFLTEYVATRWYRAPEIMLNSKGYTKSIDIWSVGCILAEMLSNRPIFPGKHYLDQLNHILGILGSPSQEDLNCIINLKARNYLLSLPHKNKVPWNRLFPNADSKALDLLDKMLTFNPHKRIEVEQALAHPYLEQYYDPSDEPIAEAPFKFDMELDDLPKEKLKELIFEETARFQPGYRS
Test [6] addresses Protein kinase C alpha type (Homo sapiens) (UniProt P17252). Description: Inhibition of PKCalpha (unknown origin) at 50 nM by Z'LYTE screening method relative to control.
The target in test [7] is Protein kinase C delta type (Homo sapiens) (UniProt Q05655). Description: Inhibition of PKCdelta (unknown origin) at 50 nM by Z'LYTE screening method relative to control.
Chain of Protein kinase C delta type (Homo sapiens) (Q05655 whole entry, looked up): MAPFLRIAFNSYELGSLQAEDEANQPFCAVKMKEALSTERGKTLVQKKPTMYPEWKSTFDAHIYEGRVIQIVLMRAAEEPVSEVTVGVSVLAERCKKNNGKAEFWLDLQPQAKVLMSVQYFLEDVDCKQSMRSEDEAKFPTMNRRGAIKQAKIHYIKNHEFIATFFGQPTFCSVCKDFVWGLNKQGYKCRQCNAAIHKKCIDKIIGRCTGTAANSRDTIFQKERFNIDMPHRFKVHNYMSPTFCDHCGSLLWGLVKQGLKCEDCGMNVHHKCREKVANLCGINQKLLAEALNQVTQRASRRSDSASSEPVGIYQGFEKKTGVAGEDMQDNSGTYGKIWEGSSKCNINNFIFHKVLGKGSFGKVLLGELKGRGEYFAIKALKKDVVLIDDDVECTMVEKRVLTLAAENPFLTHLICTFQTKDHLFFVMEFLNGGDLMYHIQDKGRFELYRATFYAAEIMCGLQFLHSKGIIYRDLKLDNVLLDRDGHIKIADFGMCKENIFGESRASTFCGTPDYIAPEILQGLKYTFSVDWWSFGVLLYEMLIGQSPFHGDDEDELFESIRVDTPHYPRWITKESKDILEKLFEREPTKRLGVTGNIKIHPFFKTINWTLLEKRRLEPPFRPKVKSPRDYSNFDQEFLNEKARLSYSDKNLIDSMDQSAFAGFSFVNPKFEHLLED
Test [8] addresses T2, Protein kinase C epsilon type (Homo sapiens) (UniProt Q02156).
T2 sequence (whole entry): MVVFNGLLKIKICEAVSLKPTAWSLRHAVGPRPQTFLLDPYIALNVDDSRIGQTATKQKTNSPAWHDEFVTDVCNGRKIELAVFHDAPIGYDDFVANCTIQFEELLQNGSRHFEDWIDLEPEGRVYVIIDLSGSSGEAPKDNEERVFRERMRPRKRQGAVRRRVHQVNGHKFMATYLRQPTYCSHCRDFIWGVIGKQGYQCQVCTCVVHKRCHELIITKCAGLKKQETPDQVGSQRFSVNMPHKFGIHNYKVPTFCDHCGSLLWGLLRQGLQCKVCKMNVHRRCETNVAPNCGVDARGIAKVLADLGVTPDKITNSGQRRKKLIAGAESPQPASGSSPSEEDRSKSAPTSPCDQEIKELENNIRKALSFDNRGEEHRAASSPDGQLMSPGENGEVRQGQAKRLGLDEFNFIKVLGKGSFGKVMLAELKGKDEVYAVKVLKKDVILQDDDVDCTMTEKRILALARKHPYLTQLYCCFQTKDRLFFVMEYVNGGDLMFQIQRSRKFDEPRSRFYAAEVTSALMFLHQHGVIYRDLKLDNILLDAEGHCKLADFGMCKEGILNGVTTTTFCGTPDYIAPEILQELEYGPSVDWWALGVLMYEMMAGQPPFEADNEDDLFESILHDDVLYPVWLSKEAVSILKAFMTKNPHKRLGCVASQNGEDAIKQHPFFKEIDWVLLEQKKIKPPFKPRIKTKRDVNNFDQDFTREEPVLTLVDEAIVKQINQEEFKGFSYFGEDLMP
Description: Inhibition of PKCepsilon (unknown origin) at 50 nM by Z'LYTE screening method relative to control.

For test [9], the target named is T3, Serine/threonine-protein kinase D1 (Homo sapiens) (UniProt Q15139).
T3 sequence (whole entry): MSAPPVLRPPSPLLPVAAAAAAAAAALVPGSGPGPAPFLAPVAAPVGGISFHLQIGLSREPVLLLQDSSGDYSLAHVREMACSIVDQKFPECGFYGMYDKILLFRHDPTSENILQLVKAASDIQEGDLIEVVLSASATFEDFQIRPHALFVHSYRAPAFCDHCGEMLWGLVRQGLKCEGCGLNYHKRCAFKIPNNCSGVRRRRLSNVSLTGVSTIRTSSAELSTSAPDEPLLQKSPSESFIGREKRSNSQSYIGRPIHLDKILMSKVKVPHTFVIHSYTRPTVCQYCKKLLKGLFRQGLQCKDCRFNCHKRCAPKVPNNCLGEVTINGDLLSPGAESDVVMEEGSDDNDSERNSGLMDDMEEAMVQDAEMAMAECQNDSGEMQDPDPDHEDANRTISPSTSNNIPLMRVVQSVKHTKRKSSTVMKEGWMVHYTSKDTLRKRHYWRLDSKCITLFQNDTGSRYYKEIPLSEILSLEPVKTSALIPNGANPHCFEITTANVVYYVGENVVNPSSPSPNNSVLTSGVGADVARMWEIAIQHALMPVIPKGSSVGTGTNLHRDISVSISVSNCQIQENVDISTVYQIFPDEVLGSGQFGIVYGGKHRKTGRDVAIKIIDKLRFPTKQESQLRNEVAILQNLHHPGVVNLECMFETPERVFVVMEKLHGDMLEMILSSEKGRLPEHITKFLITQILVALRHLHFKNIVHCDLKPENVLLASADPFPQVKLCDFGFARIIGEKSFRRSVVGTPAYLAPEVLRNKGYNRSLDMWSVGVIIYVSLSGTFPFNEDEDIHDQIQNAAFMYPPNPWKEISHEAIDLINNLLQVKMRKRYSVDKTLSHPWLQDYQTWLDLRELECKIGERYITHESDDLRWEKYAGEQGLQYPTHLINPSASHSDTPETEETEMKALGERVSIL
Description: Inhibition of PKCmu (unknown origin) at 50 nM by Z'LYTE screening method relative to control.

In test [10] the target is Tyrosine-protein kinase SYK (Homo sapiens) (UniProt P43405). Description: Inhibition of SYK (unknown origin) at 50 nM by Z'LYTE screening method relative to control.
Test [11] addresses Tyrosine-protein kinase Yes (Homo sapiens) (UniProt P07947). Kind of test: Inhibition of YES1 (unknown origin) at 50 nM by Z'LYTE screening method relative to control.
The target of test [12] is Hepatocyte growth factor receptor (Homo sapiens) (UniProt P08581). Kind of test: Inhibition of cMet (unknown origin) at 50 nM by Z'LYTE screening method relative to control.
Chain of Hepatocyte growth factor receptor (Homo sapiens) (P08581 whole entry): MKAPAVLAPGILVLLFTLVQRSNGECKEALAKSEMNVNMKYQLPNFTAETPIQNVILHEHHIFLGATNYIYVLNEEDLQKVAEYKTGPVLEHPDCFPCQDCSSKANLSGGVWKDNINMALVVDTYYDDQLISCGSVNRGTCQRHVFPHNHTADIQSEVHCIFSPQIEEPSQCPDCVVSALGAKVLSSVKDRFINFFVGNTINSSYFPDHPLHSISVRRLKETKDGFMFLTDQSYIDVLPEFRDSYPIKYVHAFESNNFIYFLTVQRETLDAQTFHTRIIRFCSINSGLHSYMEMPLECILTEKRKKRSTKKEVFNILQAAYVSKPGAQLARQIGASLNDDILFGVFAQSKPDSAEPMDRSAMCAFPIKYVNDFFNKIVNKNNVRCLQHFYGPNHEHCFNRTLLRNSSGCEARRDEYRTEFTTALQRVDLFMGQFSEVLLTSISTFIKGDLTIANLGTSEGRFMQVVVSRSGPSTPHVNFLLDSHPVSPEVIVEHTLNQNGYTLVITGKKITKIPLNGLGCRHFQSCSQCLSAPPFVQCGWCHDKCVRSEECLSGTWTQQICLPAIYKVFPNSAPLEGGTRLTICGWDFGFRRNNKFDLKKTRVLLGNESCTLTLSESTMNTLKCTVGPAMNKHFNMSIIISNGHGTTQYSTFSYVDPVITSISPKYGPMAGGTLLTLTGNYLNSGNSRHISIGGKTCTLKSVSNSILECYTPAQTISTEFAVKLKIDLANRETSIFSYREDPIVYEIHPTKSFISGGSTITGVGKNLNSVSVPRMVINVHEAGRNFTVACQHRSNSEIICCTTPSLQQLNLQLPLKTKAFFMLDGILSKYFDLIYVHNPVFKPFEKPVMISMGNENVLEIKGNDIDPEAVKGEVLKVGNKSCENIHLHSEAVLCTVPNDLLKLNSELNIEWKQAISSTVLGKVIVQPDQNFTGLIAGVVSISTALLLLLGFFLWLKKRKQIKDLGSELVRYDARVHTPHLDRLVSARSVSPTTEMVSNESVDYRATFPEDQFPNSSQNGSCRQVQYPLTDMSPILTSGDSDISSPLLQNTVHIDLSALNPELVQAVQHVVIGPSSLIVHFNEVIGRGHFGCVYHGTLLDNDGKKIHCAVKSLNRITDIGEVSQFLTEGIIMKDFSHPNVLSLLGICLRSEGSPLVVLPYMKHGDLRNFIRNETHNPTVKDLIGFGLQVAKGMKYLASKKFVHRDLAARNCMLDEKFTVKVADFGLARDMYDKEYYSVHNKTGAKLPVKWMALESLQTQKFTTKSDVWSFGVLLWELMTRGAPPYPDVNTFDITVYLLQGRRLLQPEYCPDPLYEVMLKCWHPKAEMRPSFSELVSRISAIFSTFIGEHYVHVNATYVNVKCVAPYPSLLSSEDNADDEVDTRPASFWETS
Test [13] addresses PI3-kinase p110-alpha/p85-alpha (Homo sapiens) (UniProt P27986+P42336). Description: Inhibition of p110alpha/p85alpha (unknown origin) at 50 nM by Z'LYTE screening method relative to control. Format: protein-complex assay.
The subject of another test is 4T1. Description: Cytotoxicity against mouse 4T1 cells assessed as reduction in cell viability incubated for 96 hrs by MTT assay. In kind it is functional, cell-based. The note with it: 4T1, 96 h.

Molecules are shown by their SMILES.

Chain of Aurora kinase B (Homo sapiens) (Q96GD4 whole entry): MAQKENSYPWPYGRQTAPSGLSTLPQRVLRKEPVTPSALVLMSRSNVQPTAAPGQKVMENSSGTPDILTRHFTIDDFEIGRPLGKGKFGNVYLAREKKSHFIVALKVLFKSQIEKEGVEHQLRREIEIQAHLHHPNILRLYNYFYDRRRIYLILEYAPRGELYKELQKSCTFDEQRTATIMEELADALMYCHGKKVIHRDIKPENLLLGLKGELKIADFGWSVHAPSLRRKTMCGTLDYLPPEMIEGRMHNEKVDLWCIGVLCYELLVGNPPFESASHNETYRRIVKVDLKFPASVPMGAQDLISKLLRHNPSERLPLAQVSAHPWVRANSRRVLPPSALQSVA
Chain of Dual specificity mitogen-activated protein kinase kinase 1 (Homo sapiens) (Q02750 whole entry): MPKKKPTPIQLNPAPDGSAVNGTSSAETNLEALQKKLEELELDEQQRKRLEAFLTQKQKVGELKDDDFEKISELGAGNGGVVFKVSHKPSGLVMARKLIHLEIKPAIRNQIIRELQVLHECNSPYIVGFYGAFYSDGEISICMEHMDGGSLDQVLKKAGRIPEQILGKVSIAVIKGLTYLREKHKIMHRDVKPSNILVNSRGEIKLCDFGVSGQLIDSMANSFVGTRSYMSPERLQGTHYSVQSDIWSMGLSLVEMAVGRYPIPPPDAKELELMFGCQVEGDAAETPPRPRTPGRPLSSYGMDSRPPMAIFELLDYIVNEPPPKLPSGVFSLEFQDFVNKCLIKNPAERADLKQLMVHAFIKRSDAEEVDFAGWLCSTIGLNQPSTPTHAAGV
Chain of Tyrosine-protein kinase Yes (Homo sapiens) (P07947 2-543 limits assumed): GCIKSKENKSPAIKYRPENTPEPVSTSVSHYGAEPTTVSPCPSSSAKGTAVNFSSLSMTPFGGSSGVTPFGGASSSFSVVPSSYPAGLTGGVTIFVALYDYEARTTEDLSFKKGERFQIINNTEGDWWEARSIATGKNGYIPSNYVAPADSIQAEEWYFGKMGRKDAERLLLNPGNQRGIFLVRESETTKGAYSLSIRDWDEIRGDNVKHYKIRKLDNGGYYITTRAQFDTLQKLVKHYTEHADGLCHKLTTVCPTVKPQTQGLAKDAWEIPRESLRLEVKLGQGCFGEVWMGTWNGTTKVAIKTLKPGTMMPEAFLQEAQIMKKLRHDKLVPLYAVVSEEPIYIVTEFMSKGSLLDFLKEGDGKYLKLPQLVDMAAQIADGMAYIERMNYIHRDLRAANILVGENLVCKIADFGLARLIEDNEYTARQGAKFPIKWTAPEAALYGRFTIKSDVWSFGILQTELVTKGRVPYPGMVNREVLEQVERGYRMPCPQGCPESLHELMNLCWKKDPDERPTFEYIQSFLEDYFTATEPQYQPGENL

Consider `O=C1c2ccccc2CN1c1nc(N[C@H]2CC[Se]C2)c2nc[nH]c2n1`, for which the inhibition in [1] worked out at 9%; in test [2] it was 13%; in test [3] it was 2%; in [4], 3%; in [5], 0%; in test [6], 3%. Besides, the inhibition in [7] was found to be 0%; in test [8] it was 2%; in [9], 1%; in test [10], 1%; in test [11], 12%; in test [12], 0%. The inhibition in test [13] turned out to be 0%. Further, in the test on 4T1, the IC50 worked out at 27.2 µM.

As to `O=c1c2ccccc2[se]n1-c1nc(N[C@H]2CCOC2)c2nc[nH]c2n1`, the inhibition in test [1] turned out to be 0%; in test [2], 1%; in [3], 1%; in test [4] it was 2%; in test [5] it was 2%; in [6] it was 91%. The inhibition was found to be 0% in test [7]; 0% in [8]; 0% in test [9]; 2% in [10]; 6% in test [11]; 0% in [12]. The inhibition in test [13] came out at 0%. In the test on 4T1, the IC50 was 1.8 µM.

As to `O=c1c2ccccc2[se]n1-c1nc(N[C@@H]2C[C@H]3CC[C@@H]2C3)c2nc[nH]c2n1`, the inhibition in [1] came out at 4%; in test [2], 9%; in test [3], 0%; in [4], 2%; in [5], 0%; in [6] it was 8%. Also, the inhibition in [7] was 0%; in test [8], 2%; in [9] it was 2%; in [10], 3%; in test [11] it was 9%; in [12] it was 1%. Further, the inhibition in test [13] was found to be 0%. The IC50 in the test on 4T1 stood at 31.8 µM.

The values above are taken from ChEMBL document CHEMBL5154740, “Novel Aurora A and Protein Kinase C (α, β1, β2, and θ) Multitarget Inhibitors: Impact of Selenium Atoms on the Potency and Selectivity” (J Med Chem, 2022).
